Patent US12667087B2, “Methods of treatment with aminolevulinic acid synthase 2 (ALAS2) modulators” (Agios Pharmaceuticals, Inc., priority 2019, dated 2026)

The compounds below were run against T1, wild type ALAS2 (Homo sapiens, UniProt P22557) (assay: General IC50 assay, version 1 (5 ug/mL ALAS2), ALA by mass spectrometry). Conditions: version 1 assay: 5 ug/mL ALAS2, 0 uM PLP, 1 h reaction.
T1 construct: MBP (TEV-cleavable) (C, cleaved yes); made in house; host or cells: E. coli
T1 sequence (P22557 79-587): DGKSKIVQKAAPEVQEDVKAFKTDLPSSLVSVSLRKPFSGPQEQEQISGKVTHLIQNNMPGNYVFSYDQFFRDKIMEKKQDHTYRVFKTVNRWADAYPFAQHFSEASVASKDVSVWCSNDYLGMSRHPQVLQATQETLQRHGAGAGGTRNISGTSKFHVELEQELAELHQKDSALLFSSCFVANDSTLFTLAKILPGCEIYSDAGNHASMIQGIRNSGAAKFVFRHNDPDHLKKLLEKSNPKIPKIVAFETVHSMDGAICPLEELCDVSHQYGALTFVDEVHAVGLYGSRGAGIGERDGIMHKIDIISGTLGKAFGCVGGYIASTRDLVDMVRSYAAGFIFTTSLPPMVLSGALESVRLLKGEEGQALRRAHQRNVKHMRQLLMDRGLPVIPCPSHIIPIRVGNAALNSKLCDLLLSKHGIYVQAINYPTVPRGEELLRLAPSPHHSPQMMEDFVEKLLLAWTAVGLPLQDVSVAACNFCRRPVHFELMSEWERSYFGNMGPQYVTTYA
Assay type: biochemical
Experimental: (§1) The exemplified compounds in Table I were tested in vitro against the wild type ALAS2. As described in Example 38, two concentrations of ALAS2 were used: 5 ug/mL ALAS2 (for the version I assay) and 2 ug/mL (for the version 2 assay). “A” refers to an IC50 less than 10.0 μM; “B” refers to an IC50 from 10.0 μM to 50.0 μM; and “C” refers to an AC50 greater than 50.0 μM.
(§2) ALAS2 sequence (see FIG. 8) (residues 79-587) was expressed in E. coli as a TEV cleavable C-terminally MBP tagged construct. Purification steps included an amylose column, followed by MBP tag cleavage and passage through a Ni-NTA column to remove cleaved MBP. ALAS2 was further purified and exchanged into storage buffer (50 mM Tris, 500 mM NaCl, 1 mM DTT, 10 μM PLP, pH 8.0) by size exclusion through a Superdex 200 column and stored at −80° C.
(§3) Preparation of stock solutions: All solutions were prepared by standard methods with the exception of glycine and succinyl CoA. A 1 M solution of glycine was prepared and the pH adjusted to 8.0 by addition of […]. A 1 mM solution of succinyl CoA was prepared in 20 mM phosphoric acid, pH 2.0 to ensure its stability to hydrolysis.
(§4) Routine compound testing for IC50 measurements: Assays were carried out in 96-well V-bottom polypropylene plates (Greiner-Bio cat. no. 651201) at room temperature. Test compound dilution series and DMSO blanks (1 μL) were dispensed into the 96-well plates. A solution of 1.1× assay mix was prepared to contain, in the final 1× assay conditions: 5 μg/mL ALAS2 (for the version 1 assay) or 2 ug/mL (for the version 2 assay), 20 mM sodium phosphate pH 8.0, 3.5 mM glycine, 1 mM MgCl2, 30 mM NaCl, 0.03% BSA, 1 mM EDTA. Assay mix (45 μL) was added to each well, and compound and assay mix were pre-incubated for 1 h at room temperature. Assays were then initiated by addition of 5 μL 1 mM succinyl CoA to each well to give a final concentration of 100 μM. Reactions proceeded for 1 h (version 1 assay) or 2 h (version 2 assay) at room temperature, then were quenched by addition of 200 μL acetonitrile containing 1% formic acid and 0.2 μg/mL ^13C, ^15N aminolevulinic acid (ALA) as an internal standard. The plates were centrifuged at 4° C. for 1 min at 3500 rpm, then 200 μL of supernatant was transferred to a fresh 96-well plate for detection of ALA by high throughput mass spectrometry.
(§5) Measurement of ALA concentration by high throughput mass spectrometry: ALA was monitored in positive mode on a Sciex QTRAP 6500 connected to a Shimadzu 20AD LC using the conditions outlined in the table below. Samples were transferred from the assay plate and loaded onto a ZIC HILIC Trap column (Optimize Technologies, 4 μL, 10 μM) at a flow rate of 1.2 mL/min in 99% acetonitrile, 1% ddH2O containing 0.5% formic acid to remove nonvolatile components with a 6 s desalt cycle. Analytes were eluted with 95% acetonitrile, 5% ddH2O containing 0.5% formic acid in 12 s elution cycles. Concentrations of ALA in each sample were measured by comparison to an authentic standard curve, and IC50s were determined by fitting to the log(compound) vs. response equation Y=bottom+(top−bottom)/(1+10^((log IC50-X)*HillSlope)).
`CN(N)c1snnc1-c1ccccc1` [Compound 16] was tested, and the “IC50 (uM) ALAS2 v1; 0 uM PLP” value was “No Fit”. With `CC(C)N(N)c1nnn[nH]1` [Compound 62] the “IC50 (uM) ALAS2 v1; 0 uM PLP” value was “No Fit”.

Same assay, conditions: version 1 assay: 5 ug/mL ALAS2, 0 uM PLP, 1 h reaction; read-out: IC50 (uM) ALAS2 v1; 0 uM PLP
In the case of `NNc1nnc(-c2ccccc2)s1` [Compound 27], the IC50 is reported as less than 10 µM. Compound `CCCN(N)c1nnn[nH]1` [Compound 60] has an IC50 greater than 50 µM. Work on `NNc1nc(-c2ccccc2)no1` [Compound 21] yielded an IC50 of less than 10 µM. Compound `NNc1cc(-c2ccncc2)[nH]n1` [Compound 7] has an IC50 of 10 to 50 µM. In the case of `NNc1nnn[nH]1` [Compound 67], the IC50 is reported as less than 10 µM. `NNc1nnc(C2CC2)s1` [Compound 25] showed an IC50 greater than 50 µM. Compound `NNc1cc(-c2ccccc2)[nH]n1` [Compound 9] has an IC50 of 10 to 50 µM. Work on `NN(c1nnn[nH]1)C1CC1` [Compound 61] yielded an IC50 greater than 50 µM. With `CCCc1nnc(NN)[nH]1` [Compound 13] the IC50 was 10 to 50 µM. In the case of `CN(N)c1noc(=O)[nH]1` [Compound 45], the IC50 is reported as less than 10 µM. Compound `CN(N)c1nnc(C(F)(F)F)[nH]1` [Compound 36] has an IC50 of less than 10 µM. Work on `CN(N)c1n[nH]nc1C(F)(F)F` [Compound 37] yielded an IC50 of 10 to 50 µM. Work on `Cc1cnc(NN)s1` [Compound 40] yielded an IC50 of less than 10 µM. Work on `NNc1nnco1` [Compound 47] yielded an IC50 greater than 50 µM. In the case of `Cc1ccccc1-c1nnc(NN)[nH]1` [Compound 11], the IC50 is reported as less than 10 µM. `NNc1cc(C(F)(F)F)n[nH]1` [Compound 28] gave an IC50 of 10 to 50 µM. `NNc1ccn(-c2ccccc2)n1` [Compound 10] gave an IC50 of 10 to 50 µM. Compound `Cc1nc(NN)sc1C(=O)O` [Compound 54] has an IC50 of 10 to 50 µM. Work on `NNc1nc(CO)cs1` [Compound 53] yielded an IC50 of 10 to 50 µM. `NNc1nc(-c2ccc(N)cc2)cs1` [Compound 17] showed an IC50 greater than 50 µM. In the case of `NNc1nc(-c2ccco2)cs1` [Compound 18], the IC50 is reported as greater than 50 µM. `NNc1ccn(CC(F)(F)F)n1` [Compound 31] showed an IC50 greater than 50 µM. `NNc1nc(-c2ccc(F)cc2)no1` [Compound 8] showed an IC50 of 10 to 50 µM. For `NNc1nc(-c2ccncc2)no1` [Compound 20], the IC50 was less than 10 µM. With `COc1ccc(-c2nnc(NN)s2)cc1` [Compound 24] the IC50 was 10 to 50 µM. Work on `CN(N)c1nnnn1Cc1ccccc1` [Compound 65] yielded an IC50 greater than 50 µM. `CCOC(=O)c1sc(NN)nc1C` [Compound 57] showed an IC50 of 10 to 50 µM. `NNc1n[nH]nc1C(F)(F)F` [Compound 39] was tested, and the IC50 was less than 10 µM. `NNc1nc(C(F)(F)F)cs1` [Compound 23] gave an IC50 greater than 50 µM. For `COCc1cnc(NN)s1` [Compound 41], the IC50 was greater than 50 µM. `CCN(N)c1noc(=O)[nH]1` [Compound 38] gave an IC50 of less than 10 µM. For `Cc1nc(C#N)c(NN)o1` [Compound 52], the IC50 was greater than 50 µM. Work on `N#Cc1cnc(NN)s1` [Compound 48] yielded an IC50 of 10 to 50 µM. For `NNc1nc(N2CCOCC2)n[nH]1` [Compound 14], the IC50 was 10 to 50 µM. `NNc1ncc(C(=O)O)s1` [Compound 49] showed an IC50 greater than 50 µM. Compound `NNc1nnnn1-c1ccccc1` [Compound 15] has an IC50 greater than 50 µM. `Cn1nnnc1NN` [Compound 55] showed an IC50 greater than 50 µM. For `Cc1csc(NN)n1` [Compound 42], the IC50 was greater than 50 µM. Compound `N#Cc1ncoc1NN` [Compound 59] has an IC50 greater than 50 µM. In the case of `Cn1c(NN)nnc1-c1ccccc1` [Compound 30], the IC50 is reported as greater than 50 µM. `CCOC(=O)c1[nH]cnc1NN` [Compound 46] gave an IC50 of less than 10 µM. In the case of `CN(N)c1n[nH]c(=O)[nH]1` [Compound 43], the IC50 is reported as less than 10 µM. For `Cn1cnnc1NN` [Compound 58], the IC50 was greater than 50 µM. Work on `COCc1cnc(N(N)C(=O)C(F)(F)F)s1` [Compound 51] yielded an IC50 greater than 50 µM. `NNc1ccn(CC(=O)O)n1` [Compound 35] showed an IC50 of less than 10 µM. With `NNc1nnc(C2CCC2)[nH]1` [Compound 12] the IC50 was greater than 50 µM. `NNc1nc(-c2cccnc2)no1` [Compound 19] was tested, and the IC50 was less than 10 µM. With `NNc1nnc(-c2ccccc2)[nH]1` [Compound 34] the IC50 was less than 10 µM. `NNc1nnc(C(F)(F)F)[nH]1` [Compound 44] was tested, and the IC50 was less than 10 µM. `CN(N)c1nnn[nH]1` [Compound 64] gave an IC50 of less than 10 µM. `NNc1nc(-c2ccccn2)no1` [Compound 6] gave an IC50 of 10 to 50 µM. `NNc1nnc[nH]1` [Compound 66] gave an IC50 of less than 10 µM. `CC(C)n1ccc(NN)n1` [Compound 32] gave an IC50 of less than 10 µM. `CCN(N)c1nnn[nH]1` [Compound 63] gave an IC50 greater than 50 µM. Work on `NNc1nnc(-c2ccccn2)s1` [Compound 22] yielded an IC50 of less than 10 µM. Work on `NNc1nc(-c2ccccc2)cs1` [Compound 26] yielded an IC50 greater than 50 µM. With `NN(CCO)c1nnn[nH]1` [Compound 56] the IC50 was greater than 50 µM. `NNc1nnc(C(F)(F)F)s1` [Compound 29] was tested, and the IC50 was less than 10 µM. `NNc1nnc(O)[nH]1` [Compound 50] gave an IC50 greater than 50 µM. Compound `NNc1ccn(CC(F)F)n1` [Compound 33] has an IC50 of 10 to 50 µM.

These compounds were tested against T1, wild type ALAS2 (assay: General IC50 assay, version 2 (2 ug/mL ALAS2), ALA by mass spectrometry). Conditions: version 2 assay: 2 ug/mL ALAS2, 0 uM PLP, 2 h reaction, read-out: IC50 (uM) ALAS2 v2.
Assay type: biochemical
Experimental: as §1, §2, §3, §4, §5
For `NNc1nc(-c2ccnc3ccccc23)no1` [Compound 1], the IC50 was less than 10 µM. In the case of `NNc1nc(-c2ccc(C(F)(F)F)cc2)no1` [Compound 4], the IC50 is reported as 10 to 50 µM. Work on `NNc1nc(-c2cccc(C(F)(F)F)c2)no1` [Compound 3] yielded an IC50 greater than 50 µM. For `COc1ccc(-c2noc(NN)n2)cc1` [Compound 5], the IC50 was 10 to 50 µM. `NNc1nc(-c2ccc3ccccc3c2)no1` [Compound 2] gave an IC50 of less than 10 µM.
